Measured values taken from patent US10435414B2, “Tricyclic PI3K inhibitor compounds and methods of use” (Genentech, Inc., priority 2015, dated 2019).

Each compound was assayed against PI3Kα (alpha) (Homo sapiens (Human), UniProt P42336) (assay: p110α (alpha) PI3K binding assay (ADP-Glo lipid kinase reaction, Ki by Morrison equation)). Settings: PI3K alpha 0.2 nM, ATP 40 μM, PIP2:3PS 50 μM, 120 min, room temperature; read-out: PI3Kα-(alpha) ATP (Ki) micromolar.
Assay type: biochemical
Protocol: PI3K Binding assays are intended for determining the biochemical potency of small molecule PI3K inhibitors. The PI3K lipid kinase reaction is performed in the presence of PIP2:3PS lipid substrate (Promega #V1792) and ATP. Following the termination if the kinase reaction, turnover of ATP to ADP by the phosphorylation of the lipid substrate is detected using the Promega ADP-Glo™ (Promega #V1792) assay. Reactions are carried out using the following conditions:
After 120 minutes of reaction time, the kinase reaction is terminated. Any ATP remaining after the reaction is depleted, leaving only ADP. Then the Kinase Detection Reagent is added to convert ADP to ATP, which is used in a coupled luciferin/luciferase reaction. The luminescent output is measured and is correlated with kinase activity.
All reactions are carried out at room temperature. […] The reaction is started by the addition of 2 μl ATP/MgCl2. The kinase reaction buffer contains 50 mM HEPES, 50 mM NaCl, 3 mM MgCl2, 0.01% BSA, 1% DMSO, and enzyme and substrate concentrations as indicated in the above table. The reaction is stopped by the addition of 10 μL ADP-Glo reagent. Plates are read in a Perkin Elmer Envision system using luminescence mode. 10 point dose response curves are generated for each test compound. Ki values for each compound are determined using the Morrison Equation.

Sequence of PI3Kα (alpha) (P42336 whole entry): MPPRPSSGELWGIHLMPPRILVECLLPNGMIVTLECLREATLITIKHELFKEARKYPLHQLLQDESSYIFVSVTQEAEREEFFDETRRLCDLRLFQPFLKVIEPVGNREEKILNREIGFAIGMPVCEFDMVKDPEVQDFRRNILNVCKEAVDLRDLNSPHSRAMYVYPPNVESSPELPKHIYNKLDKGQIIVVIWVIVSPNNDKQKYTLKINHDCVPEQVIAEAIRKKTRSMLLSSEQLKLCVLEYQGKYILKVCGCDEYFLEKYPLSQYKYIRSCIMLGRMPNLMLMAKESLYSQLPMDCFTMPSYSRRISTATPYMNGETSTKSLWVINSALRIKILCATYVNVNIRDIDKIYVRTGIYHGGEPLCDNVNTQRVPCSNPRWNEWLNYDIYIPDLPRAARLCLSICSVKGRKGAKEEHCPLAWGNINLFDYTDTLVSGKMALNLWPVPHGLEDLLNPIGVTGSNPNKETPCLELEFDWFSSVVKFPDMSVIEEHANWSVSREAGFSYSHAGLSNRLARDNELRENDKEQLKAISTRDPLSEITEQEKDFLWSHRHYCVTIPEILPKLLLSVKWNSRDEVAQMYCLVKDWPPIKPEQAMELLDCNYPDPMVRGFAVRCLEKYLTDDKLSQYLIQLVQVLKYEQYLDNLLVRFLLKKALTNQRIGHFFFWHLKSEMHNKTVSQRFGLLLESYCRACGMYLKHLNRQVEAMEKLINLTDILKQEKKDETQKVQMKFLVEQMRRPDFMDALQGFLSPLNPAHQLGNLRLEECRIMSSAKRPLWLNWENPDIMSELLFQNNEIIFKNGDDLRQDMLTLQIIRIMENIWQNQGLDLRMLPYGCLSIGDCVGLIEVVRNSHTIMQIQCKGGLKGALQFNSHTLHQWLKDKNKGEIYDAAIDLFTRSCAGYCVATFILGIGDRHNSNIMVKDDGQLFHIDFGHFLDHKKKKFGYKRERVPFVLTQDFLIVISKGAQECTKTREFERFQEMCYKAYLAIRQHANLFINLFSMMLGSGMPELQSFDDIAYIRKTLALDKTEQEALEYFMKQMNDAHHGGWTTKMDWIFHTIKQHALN
Sequence of PI3Kα (alpha) (P27986 whole entry partner): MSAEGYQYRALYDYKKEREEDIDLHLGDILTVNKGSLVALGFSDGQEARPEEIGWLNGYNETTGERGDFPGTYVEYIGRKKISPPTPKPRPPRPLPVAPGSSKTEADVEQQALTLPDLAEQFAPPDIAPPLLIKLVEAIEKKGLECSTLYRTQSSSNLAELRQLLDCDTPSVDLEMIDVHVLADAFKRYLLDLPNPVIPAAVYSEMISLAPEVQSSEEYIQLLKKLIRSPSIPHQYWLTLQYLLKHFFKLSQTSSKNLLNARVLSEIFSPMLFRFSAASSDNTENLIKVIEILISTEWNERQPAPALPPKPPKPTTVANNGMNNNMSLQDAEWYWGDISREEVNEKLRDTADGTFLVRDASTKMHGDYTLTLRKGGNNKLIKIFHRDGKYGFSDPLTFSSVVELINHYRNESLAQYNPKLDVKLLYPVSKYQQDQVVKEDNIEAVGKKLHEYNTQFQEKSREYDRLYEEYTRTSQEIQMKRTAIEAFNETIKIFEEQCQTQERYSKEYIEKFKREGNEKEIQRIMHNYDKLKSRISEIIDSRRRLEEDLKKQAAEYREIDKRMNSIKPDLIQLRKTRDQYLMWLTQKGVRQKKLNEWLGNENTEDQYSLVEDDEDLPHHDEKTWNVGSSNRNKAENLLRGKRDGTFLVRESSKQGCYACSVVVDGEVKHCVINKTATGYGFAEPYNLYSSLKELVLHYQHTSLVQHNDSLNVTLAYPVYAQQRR

| Ki [nM] | SMILES |
| --- | --- |
| 0.1 | NC(=O)[C@H](Oc1cc2c3c(c1)nc(-c1cc(F)c4oc(N)nc4c1)n3CCCCO2)C1CC1 (single isomer, unassigned) [Example 288] |
| < 0.02 | NC(=O)[C@@H](Oc1cc2c3c(c1)nc(-c1ccc4oc(N)nc4c1)n3CCCCO2)C1CC1 (single isomer, unassigned) [Example 284] |
| 0.104 | NC(=O)[C@H](Oc1cc2c3c(c1)nc(-c1ccc4oc(N)nc4c1)n3CCCCO2)C1CC1 (single isomer, unassigned) [Example 283] |
| < 0.02 | NC(=O)[C@@H](Oc1cc2c3c(c1)nc(-c1cc(F)c4oc(N)nc4c1)n3CCCCO2)C1CC1 (single isomer, unassigned) [Example 289] |
